Patent publication US11078202B2, “β-lactamase inhibitor and use thereof” (priority 2018, dated 2021)
Where a name gives a salt, the structure may show the parent alone.

Assays:
Format in all cases: cell-based
[1] = system: Acinetobacter baumannii XNWB 0007; assay: MIC assay of test compounds combined with imipenem (4 μg/mL); conditions: imipenem 4 μg/mL fixed
Procedure: (§1) The bacterial strains used for the minimum inhibitory concentration (MIC) test were frozen in a −80° C. ULT freezer and thawed 2 days before use. A small amount of frozen bacterial strains were scraped using a sterile inoculating loop, streaked onto a TSA solid culture dish for inoculation, and then cultured for 20-24 h at 35±2° C. in a normal atmospheric environment. 5-10 colonies with similar morphology were picked from the culture dish using a sterile inoculating loop and then re-streaked onto a suitable solid culture dish. Then the dish was placed into a normal incubator for culture for 20-24 h at 35±2° C. 5-10 single bacterial colonies were picked from the solid culture dish, resuspended in 500 μL of 0.9% NaCl, and adjusted to an OD600 of 0.1-0.15 with a spectrophotometer. The bacteria were then diluted 300-fold with 1.1×CAMHB. […] Dilution of test compounds: […] 2 μL of each compound in the dilution master plate of the test compounds was transferred to the corresponding well of the assay plates. In the mean time, 2 μL of 100% DMSO was transferred to the compound-free wells (GC and SC wells). (1) 8 μL of imipenem in the additive plate of imipenem was transferred to the corresponding wells of the assay plates; (2) 8 μL of ceftazidime in the additive plate of ceftazidime was transferred to the corresponding wells of the assay plates; (3) 8 μL of ampicillin in the additive plate of ampicillin was transferred to the corresponding wells of the assay plates. 90 μL of corresponding bacterial inocula were added to wells (except for SC wells) of the assay plates. After addition, the 6 assay plates were covered by sterile covers. The mixtures in the assay plates were centrifuged by a centrifuge at 1000 rpm for 30 s, and mixed uniformly by oscillating with a microplate oscillator at 800 rpm for 1 min, and then cultured in a common incubator for 16-20 h at 35±2° C. The minimum inhibitory concentration of each compound was recorded by reference to guidelines from the Clinical and Laboratory Standards Institute. […] The effect of the test compounds in combination with imipenem, ceftazidime, and ampicillin was also tested. […] The bacterial inocula in the assay plates were resuscitated from TSA and diluted in CAMHB, while growth controls (GC wells) and sterile controls (SC wells) were set up in the assay plates. The minimum inhibitory concentration of each compound combination against different bacteria was observed and recorded after the assay plates were incubated in a common incubator at 35±2° C. for 16-20 h, and the results are shown in Tables 1-3.

[2] = system: Klebsiella pneumoniae XNWB 0001; assay: as above; conditions: imipenem 4 μg/mL fixed
Procedure: as §1

[3] = system: Klebsiella pneumoniae XNWB 0002; assay: as above; conditions: imipenem 4 μg/mL fixed
Procedure: as §1

[4] = system: Klebsiella pneumoniae XNWB 0004; assay: as above; conditions: imipenem 4 μg/mL fixed
Procedure: as §1

[5] = system: Pseudomonas aeruginosa XNWB 0008; assay: as above; conditions: imipenem 4 μg/mL fixed
Procedure: as §1

[6] = system: Klebsiella pneumoniae XNWB 0003; assay: as above; conditions: imipenem 4 μg/mL fixed
Procedure: as §1

[7] = system: Klebsiella pneumoniae XNWB 0005; assay: as above; conditions: imipenem 4 μg/mL fixed
Procedure: as §1

[8] = system: Klebsiella pneumoniae XNWB 0006; assay: as above; conditions: imipenem 4 μg/mL fixed
Procedure: as §1

[9] = system: Acinetobacter baumannii XNWB 0007; assay: MIC assay of test compounds combined with ceftazidime (8 μg/mL); conditions: ceftazidime 8 μg/mL fixed
Procedure: as §1

[10] = system: Klebsiella pneumoniae XNWB 0001; assay: as above; conditions: ceftazidime 8 μg/mL fixed
Procedure: as §1

[11] = system: Klebsiella pneumoniae XNWB 0002; assay: as above; conditions: ceftazidime 8 μg/mL fixed
Procedure: as §1

[12] = system: Klebsiella pneumoniae XNWB 0004; assay: as above; conditions: ceftazidime 8 μg/mL fixed
Procedure: as §1

[13] = system: Pseudomonas aeruginosa XNWB 0008; assay: as above; conditions: ceftazidime 8 μg/mL fixed
Procedure: as §1

[14] = system: Klebsiella pneumoniae XNWB 0003; assay: as above; conditions: ceftazidime 8 μg/mL fixed
Procedure: as §1

[15] = system: Klebsiella pneumoniae XNWB 0005; assay: as above; conditions: ceftazidime 8 μg/mL fixed
Procedure: as §1

[16] = system: Klebsiella pneumoniae XNWB 0006; assay: as above; conditions: ceftazidime 8 μg/mL fixed
Procedure: as §1

SMILES | The minimum concentration of test compounds combined with imipenem (4 μg/mL) for bacteriostasis [1] | The minimum concentration of test compounds combined with imipenem (4 μg/mL) for bacteriostasis [2] | The minimum concentration of test compounds combined with imipenem (4 μg/mL) for bacteriostasis [3] | The minimum concentration of test compounds combined with imipenem (4 μg/mL) for bacteriostasis [4] | The minimum concentration of test compounds combined with imipenem (4 μg/mL) for bacteriostasis [5] | The minimum concentration of test compounds combined with imipenem (4 μg/mL) for bacteriostasis [6] | The minimum concentration of test compounds combined with imipenem (4 μg/mL) for bacteriostasis [7] | The minimum concentration of test compounds combined with imipenem (4 μg/mL) for bacteriostasis [8] | The minimum concentration of test compounds combined with ceftazidime (8 μg/mL) for bacteriostasis [9] | The minimum concentration of test compounds combined with ceftazidime (8 μg/mL) for bacteriostasis [10] | The minimum concentration of test compounds combined with ceftazidime (8 μg/mL) for bacteriostasis [11] | The minimum concentration of test compounds combined with ceftazidime (8 μg/mL) for bacteriostasis [12] | The minimum concentration of test compounds combined with ceftazidime (8 μg/mL) for bacteriostasis [13] | The minimum concentration of test compounds combined with ceftazidime (8 μg/mL) for bacteriostasis [14] | The minimum concentration of test compounds combined with ceftazidime (8 μg/mL) for bacteriostasis [15] | The minimum concentration of test compounds combined with ceftazidime (8 μg/mL) for bacteriostasis [16]
CNC1(Cc2nnc([C@@H]3CC4(CC4)[C@@H]4CN3C(=O)N4OS(=O)(=O)O)o2)CC1 [Example 22, (1R,4S)-4-(5-((1-(methylamino)cyclopropyl)methyl)-1,3,4-oxadiazol-2-yl)-6-oxo-5,7-diazaspiro[bicyclo[3.2.1]octane-2,1′-cyclopropan]-7-yl sulfate] | C (C: 16-128 μg/mL) | A (A: <8 μg/mL) | A (A: <8 μg/mL) | A (A: <8 μg/mL) | C (C: 16-128 μg/mL) | A (A: <8 μg/mL) | A (A: <8 μg/mL) | A (A: <8 μg/mL) | C (C: 16-128 μg/mL) | B (B: 8-16 μg/mL) | A (A: <8 μg/mL) | C (C: 16-128 μg/mL) | C (C: 16-128 μg/mL) | B (B: 8-16 μg/mL) | B (B: 8-16 μg/mL) | A (A: <8 μg/mL)
N=C(N)N1CCC(NCCc2cc([C@@H]3CC4(CC4)[C@@H]4CN3C(=O)N4OS(=O)(=O)O)no2)CC1 [Example 47, (1R,4S)-4-(5-(2-((1-amidinopiperidin-4-yl)amino)ethyl)isoxazol-3-yl)-6-oxo-5,7-diazaspiro[bicyclo[3.2.1]octane-2,1′-cyclopropan]-7-yl sulfate] | C (C: 16-128 μg/mL) | A (A: <8 μg/mL) | A (A: <8 μg/mL) | A (A: <8 μg/mL) | A (A: <8 μg/mL) | A (A: <8 μg/mL) | A (A: <8 μg/mL) | A (A: <8 μg/mL) | C (C: 16-128 μg/mL) | B (B: 8-16 μg/mL) | A (A: <8 μg/mL) | C (C: 16-128 μg/mL) | C (C: 16-128 μg/mL) | C (C: 16-128 μg/mL) | C (C: 16-128 μg/mL) | B (B: 8-16 μg/mL)
N[C@H]1C[C@H](Cc2nnc([C@@H]3CC4(CC4)[C@@H]4CN3C(=O)N4OS(=O)(=O)O)o2)C1 [Example 19, (1R,4S)-4-(5-(((1R,3R)-3-aminocyclobutyl)methyl)-1,3,4-oxadiazol-2-yl)-6-oxo-5,7-diazaspiro[bicyclo[3.2.1]octane-2,1′-cyclopropan]-7-yl sulfate] | B (B: 8-16 μg/mL) | A (A: <8 μg/mL) | A (A: <8 μg/mL) | A (A: <8 μg/mL) | B (B: 8-16 μg/mL) | A (A: <8 μg/mL) | A (A: <8 μg/mL) | A (A: <8 μg/mL) | C (C: 16-128 μg/mL) | A (A: <8 μg/mL) | A (A: <8 μg/mL) | A (A: <8 μg/mL) | B (B: 8-16 μg/mL) | A (A: <8 μg/mL) | A (A: <8 μg/mL) | A (A: <8 μg/mL)
NC[C@@H](O)c1nnc([C@@H]2CC3(CC3)[C@@H]3CN2C(=O)N3OS(=O)(=O)O)o1 [Example 61] | B (B: 8-16 μg/mL) | A (A: <8 μg/mL) | A (A: <8 μg/mL) | A (A: <8 μg/mL) | B (B: 8-16 μg/mL) | A (A: <8 μg/mL) | A (A: <8 μg/mL) | A (A: <8 μg/mL) | – | – | – | – | – | – | – | –
NC[C@H](O)c1nnc([C@@H]2CC3(CC3)[C@@H]3CN2C(=O)N3OS(=O)(=O)O)o1 [Example 62, (1R,4S)-4-(5-((S)-2-amino-1-hydroxyethyl)-1,3,4-oxadiazol-2-yl)-6-oxo-5,7-diazaspiro[bicyclo[3.2.1]octane-2,1′-cyclopropane]-7-yl hydrogen sulfate] | A (A: <8 μg/mL) | A (A: <8 μg/mL) | A (A: <8 μg/mL) | A (A: <8 μg/mL) | B (B: 8-16 μg/mL) | A (A: <8 μg/mL) | A (A: <8 μg/mL) | A (A: <8 μg/mL) | – | – | – | – | – | – | – | –
